Structures can show the parent of a compound that is named as a salt.
Tests used:
[1] = Hepatocyte stability assay, mouse cryopreserved hepatocytes; format: in vitro ADME; conditions: cryopreserved hepatocytes; Mouse hepatocytes, 10 μM, 60 min; class symbols; read-out: T½
Description: (§1) Biological Example 3—Hepatocyte Stability Assay
(§2) Defrosted cryo-preserved hepatocytes (viability >70%) were used to determine the metabolic stability of a compound via calculation of intrinsic clearance (CIint; a measure of the removal of a compound from the liver in the absence of blood flow and cell binding). Clearance data are particularly important for in vitro work as they can be used in combination with in vivo data to predict the half-life and oral bioavailability of a drug.
(§3) The metabolic stability in hepatocytes assay involves a time-dependent reaction using both positive and negative controls. The cells were pre-incubated at 37° C. and spiked with test compound (and positive control); samples taken at pre-determined time intervals were analysed to monitor the change in concentration of the initial drug compound over 60 minutes. A buffer incubation reaction (with no hepatocytes present) acted as a negative control and two cocktail solutions, containing compounds with known high and low clearance values (verapamil/7-hydroxycoumarin and propranolol/diltiazem), acted as positive controls. • 1. The assay was run with a cell concentration of 0.5×10^6 cells/mL in Leibovitz buffer. • 2. All compounds and controls were run in duplicate. • 3. Compound concentration was 10 μM. • 4. All compounds and controls were incubated with both cells and buffer to show turnover was due to hepatic metabolism. • 5. All wells on the incubation plate had 326.7 μL of either cells or buffer added. • 6. Prior to assay, cell and buffer-only incubation plates were preincubated for 10 mins at 37° C. • 7. The assay was initiated by adding compounds, 3.3 μL of 1 mM in 10% DMSO-90% Buffer; final DMSO concentration is 0.1%. • 8. Samples were taken at regular timepoints (0, 5, 10, 20, 40, 60 min) until 60 mins. • 9. Sample volume was 40 μL and was added to 160 μL of crash solvent (acetonitrile with internal standard) and stored on ice. • 10. At the end of the assay, the crash plates were centrifuged at 3500 rpm for 20 mins at 4° C. • 11. 80 μL of clear supernatant was removed and mixed with 80 μL of deionised water before being analysed by LC-MS/MS.
(§4) Raw LC-MS/MS data was exported to, and analysed in, Microsoft Excel for determination of intrinsic clearance. The percentage remaining of a compound was monitored using the peak area of the initial concentration as 100%. Intrinsic clearance and half-life values were calculated using a graph of the natural log of percentage remaining versus the time of reaction in minutes. Half-life (min) and intrinsic clearance (CIint in μL min^−1 10^−6 cells) values were calculated using the gradient of the graph (the elimination rate constant, k) and Equations 1 and 2.

[2] = test system: cryo-preserved hepatocytes; assay: as above; format: in vitro ADME; conditions: Mouse hepatocytes, 10 μM, 60 min; class symbols
Description: as §1, §2, §3, §4

[3] = Hepatocyte stability assay, human cryopreserved hepatocytes; format: in vitro ADME; conditions: cryopreserved hepatocytes; Human hepatocytes, 10 μM, 60 min; class symbols; read-out: T½
Description: as §1, §2, §3, §4

IL-6 = assay: THP-1 AlphaLISA IL-6 cytokine inhibition assay (differentiated THP-1 cells); format: cell-based; conditions: Homo sapiens, LPS 24 hr then Nigericin 1 hour, class symbols
Experimental: (§5) The cytokine inhibition profiles of compounds of formula (I) were determined in a differentiated THP-1 cell assay. All assays were performed in RPMI-1640 growth medium (Gibco), supplemented with 10% fetal bovine serum (FBS; Gibco), 1% penicillin-streptomycin and 1% sodium pyruvate unless specified otherwise. The IL-1p cytokine inhibition assay was run in a background of differentiated THP-1 cells as described below. All reagents described were from Sigma-Aldrich unless specified otherwise. Compounds were prepared as 10 mM DMSO stocks.
(§6) THP-1 cells were expanded as a suspension up to 80% confluence in appropriate growth medium. Cells were harvested, suspended, and treated with an appropriate concentration of phorbol 12-myristate 13-acetate (PMA) over a 72 hr period (37° C./5% CO2).
(§7) Following 72 hrs of THP-1 cell incubation, cellular medium was removed and replaced with fresh growth media containing 1% of FBS. Working concentrations of compounds were prepared separately in 10% FBS treated growth medium and pre-incubated with the cells for 30 minutes (37° C./5% CO2). Following the 30 minute compound pre-incubation, THP-1s were treated with an appropriate concentration of LPS and the cells were subsequently incubated for a 24 hr period (37° C./5% CO2). An appropriate final concentration of Nigericin was then dispensed into the THP-1 plates and incubated for 1 hour (37° C./5% CO2) before THP-1 supernatants were harvested and collected in separate polypropylene 96-well holding plates.
(§8) Reagents from an IL-1β and IL-6 commercial kit (Perkin Elmer) were prepared and run according to the manufacturer's instructions. Subsequently, fluorescence signal detection in a microplate reader was measured (EnVision® Multilabel Reader, Perkin Elmer).
(§9) Percentage inhibition was calculated per cytokine by normalising the sample data to the high and low controls used within each plate (+/−LPS respectively). Percentage inhibition was then plotted against compound concentration and the 50% inhibitory concentration (IC50) was determined from the resultant concentration-response curve.

IL-1β = assay: THP-1 AlphaLISA IL-1β cytokine inhibition assay (differentiated THP-1 cells); format: cell-based; conditions: Homo sapiens, LPS 24 hr then Nigericin 1 hour, class symbols
Experimental: Biological Example 1—THP-1 AlphaLISA IL-1β
Measuring Inhibitory Effects on IL-1, Cytokine Output from THP-1s
as §5, §6, §7, §8, §9

NRF2 = NRF2 activation assay (DiscoverX PathHunter NRF2 translocation kit, U2OS cells); format: cell-based; conditions: Homo sapiens, 6 hours; for Emax: normalised to DMF high control
Experimental: Biological Example 2—NRF2 Activation Assay
Measuring Compound Activation Effects on the Anti-Inflammatory Transcription Factor NRF2 in DiscoverX PathHunter NRF2 Translocation Kit
Potency and efficacy of compounds of formula (I) against the target of interest to activate NRF2 (nuclear factor erythroid 2-related factor 2) were determined using the PathHunter NRF2 translocation kit (DiscoverX). The NRF2 translocation assay was run using an engineered recombinant cell line, utilising enzyme fragment complementation to determine activation of the Keap1-NRF2 protein complex and subsequent translocation of NRF2 into the nucleus. Enzyme activity was quantified using a chemiluminescent substrate consumed following the formation of a functional enzyme upon PK-tagged NRF2 translocation into the nucleus.
Additionally, a defined concentration of DMF was used as the ‘High’ control to normalise test compound activation responses to.
U2OS PathHunter eXpress cells were thawed from frozen prior to plating. Following plating, U2OS cells were incubated for 24 hrs (37° C./5% CO2) in commercial kit provided cell medium.
Following 24 hrs of incubation, plated U2OS cells were directly treated with an appropriate final concentration of compound. […]
Following compound treatment, the U2OS plates were incubated for a further 6 hours (37° C./5% CO2) before detection reagent from the PathHunter NRF2 commercial kit was prepared and added to test plates according to the manufacturer's instructions. Subsequently, the luminescence signal detection was measured in a microplate reader (PHERAstar®, BMG Labtech).
Percentage activation was calculated by normalising the sample data to the high and low controls used within each plate (+/−DMF). Percentage activation/response was then plotted against compound concentration and the 50% activation concentration ([…]) was determined from the plotted concentration-response curve.

| Compound | half-life at 10 μM [1] | Clint [2] | half-life at 10 μM [3] | IC50 (IL-6) | IC50 (IL-1β) | EC50 (NRF2; class symbols) | Emax (NRF2; class symbols) | Emax (NRF2; numeric values) | EC50 (NRF2; numeric values) |
| --- | --- | --- | --- | --- | --- | --- | --- | --- | --- |
| C=C(Cc1nc(CCCCCCCC)no1)C(=O)OCC(=O)O [Example 1, 2-((2-((3-octyl-1,2,4-oxadiazol-5-yl)methyl)acryloyl)oxy)acetic acid] | ≤ 4 min | + (+ means ≥351) | 5 to 59 min | < 5 µM | < 5 µM | < 5 µM | 135 to 165% |  |  |
| C=C(Cc1nc(CCCCCCCC)no1)C(=O)OCCC(=O)O [Example 2] | ≤ 4 min | + (+ means ≥351) | 5 to 59 min |  | < 5 µM | < 5 µM | 135 to 165% |  |  |
| C=C(Cc1nc(C2(c3ccc(C(F)(F)F)cc3)CC2)no1)C(=O)OCC(=O)O [Example 4, 2-((2-((3-(1-(4-(trifluoromethyl)phenyl)cyclopropyl)-1,2,4-oxadiazol-5-yl)methyl)acryloyl)oxy)acetic acid] | 5 to 11 min | ++ (++ means 95-350) | 60 to 100 min | 5 to 10 µM | < 5 µM | 5 to 10 µM | 135 to 165% |  |  |
| C=C(Cc1nc(CCCCCCCC)no1)C(=O)O[C@H](CC(=O)O)C(F)(F)F [Example 5, (R)-4,4,4-trifluoro-3-((2-((3-octyl-1,2,4-oxadiazol-5-yl)methyl)acryloyl)oxy)butanoic acid] | ≤ 4 min | + (+ means ≥351) | 5 to 59 min | < 5 µM | < 5 µM | < 5 µM | 135 to 165% |  |  |
| C=C(Cc1nc(CCCCCCCC)no1)C(=O)O[C@@H](CC(=O)O)C(F)(F)F [Example 6, (S)-4,4,4-trifluoro-3-((2-((3-octyl-1,2,4-oxadiazol-5-yl)methyl)acryloyl)oxy)butanoic acid] | ≤ 4 min | + (+ means ≥351) | 5 to 59 min | < 5 µM | < 5 µM | < 5 µM | > 250% |  |  |
| C=C(Cc1nc(C2(c3ccc(C(F)(F)F)cc3)CC2)no1)C(=O)O[C@H](CC(=O)O)C(F)(F)F [Example 7, (R)-4,4,4-trifluoro-3-((2-((3-(1-(4-(trifluoromethyl)phenyl)cyclopropyl)-1,2,4-oxadiazol-5-yl)methyl)acryloyl)oxy)butanoic acid] | ≤ 4 min | + (+ means ≥351) | 5 to 59 min | < 5 µM | < 5 µM | < 5 µM | 3 to 100% |  |  |
| C=C(Cc1nc(C2(c3ccc(C(F)(F)F)cc3)CC2)no1)C(=O)O[C@@H](CC(=O)O)C(F)(F)F [Example 8, (S)-4,4,4-trifluoro-3-((2-((3-(1-(4-(trifluoromethyl)phenyl)cyclopropyl)-1,2,4-oxadiazol-5-yl)methyl)acryloyl)oxy)butanoic acid] | ≤ 4 min | + (+ means ≥351) | 5 to 59 min | < 5 µM | < 5 µM | < 5 µM | 135 to 165% |  |  |
| C=C(Cc1nc(Cc2ccc(CCCC)cc2)no1)C(=O)O[C@H](CC(=O)O)C(F)(F)F [Example 9, (R)-3-((2-((3-(4-butylbenzyl)-1,2,4-oxadiazol-5-yl)methyl)acryloyl)oxy)-4,4,4-trifluorobutanoic acid] |  |  |  | < 5 µM | < 5 µM | < 5 µM | 101 to 134% |  |  |
| C=C(Cc1nc(Cc2ccc(CCCCC)cc2)no1)C(=O)O[C@H](CC(=O)O)C(F)(F)F [Example 11, (R)-4,4,4-trifluoro-3-((2-((3-(4-pentylbenzyl)-1,2,4-oxadiazol-5-yl)methyl)acryloyl)oxy)butanoic acid] |  |  |  | < 5 µM | < 5 µM | < 5 µM | 101 to 134% |  |  |
| C=C(Cc1nc(Cc2ccc(CCCCC)cc2)no1)C(=O)O[C@@H](CC(=O)O)C(F)(F)F [Example 12, (S)-4,4,4-trifluoro-3-((2-((3-(4-pentylbenzyl)-1,2,4-oxadiazol-5-yl)methyl)acryloyl)oxy)butanoic acid] |  |  |  | < 5 µM | < 5 µM | < 5 µM | 166 to 250% |  |  |
| C=C(Cc1nc(Cc2ccc(CCCC)cc2)no1)C(=O)OCCC(=O)O [Example 15, 3-((2-((3-(4-butylbenzyl)-1,2,4-oxadiazol-5-yl)methyl)acryloyl)oxy)propanoic acid] | ≤ 4 min | + (+ means ≥351) | 5 to 59 min | < 5 µM | < 5 µM |  |  |  |  |
| C=C(Cc1nc(CCCCCCCC)no1)C(=O)OC(C(F)(F)F)C(C)(C)C(=O)O (stereo not drawn) [Example 17, 4,4,4-trifluoro-2,2-dimethyl-3-((2-((3-octyl-1,2,4-oxadiazol-5-yl)methyl)acryloyl)oxy)butanoic acid] | ≤ 4 min | + (+ means ≥351) | 5 to 59 min | < 5 µM | < 5 µM |  |  |  |  |
| C=C(Cc1nc(Cc2ccc(OC(F)(F)F)cc2)no1)C(=O)OCC(=O)O [Example 20, 2-((2-((3-(4-(trifluoromethoxy)benzyl)-1,2,4-oxadiazol-5-yl)methyl)acryloyl)oxy)acetic acid] | 5 to 11 min | ++ (++ means 95-350) | > 100 min | < 5 µM | 5 to 10 µM |  |  |  |  |
| C=C(Cc1nc(CCCCC)no1)C(=O)OCC(=O)O [Example 21, 2-((2-((3-pentyl-1,2,4-oxadiazol-5-yl)methyl)acryloyl)oxy)acetic acid] |  |  |  | 11 to 20 µM | 21 to 24 µM | 11 to 21 µM | 166 to 250% |  |  |
| COC(=O)/C=C/C(=O)OC [dimethyl fumarate, reference compound] |  |  |  |  |  |  |  | 100% | 6.1 µM |

Source: patent publication US12459908B2, “Alpha, beta unsaturated methacrylic esters with anti-inflammatory properties” (Sitryx Therapeutics Limited, priority 2020, dated 2025)
